The values that follow come from paper PMC6278829 (Anesthesiology, 2018).

Broadly, the IC50 is the concentration that inhibits the measured activity by half.

The test system of assay [1] is GABAA receptor transmembrane anesthetic binding sites. As to conditions: cited from earlier work.
Assay [2] has as its target α1β3γ2L GABAA receptors (β+ – α− sites) (Homo sapiens, UniProt P14867+P18507+P28472). In words: Inhibition of ^3[H]azi-etomidate photoaffinity labeling of purified receptors. The class given is binding. As to conditions: read-out: IC50 for Inhibiting Photoaffinity Labeling by ^3[H]Azi-etomidate (95% CI); ~2 μM photolabel; 1 mM GABA (open/desensitized state).
In another assay the target is α1β3γ2L GABAA receptors (Homo sapiens, UniProt P14867+P18507+P28472). The class given is cell-based. As to conditions: 100 μM drug; wild-type receptors; n = 6 oocytes; EC5 GABA alone 4.4 ± 1.2%; P = 0.002.
α1β3γ2L GABAA receptors, sequence (P14867 28-456): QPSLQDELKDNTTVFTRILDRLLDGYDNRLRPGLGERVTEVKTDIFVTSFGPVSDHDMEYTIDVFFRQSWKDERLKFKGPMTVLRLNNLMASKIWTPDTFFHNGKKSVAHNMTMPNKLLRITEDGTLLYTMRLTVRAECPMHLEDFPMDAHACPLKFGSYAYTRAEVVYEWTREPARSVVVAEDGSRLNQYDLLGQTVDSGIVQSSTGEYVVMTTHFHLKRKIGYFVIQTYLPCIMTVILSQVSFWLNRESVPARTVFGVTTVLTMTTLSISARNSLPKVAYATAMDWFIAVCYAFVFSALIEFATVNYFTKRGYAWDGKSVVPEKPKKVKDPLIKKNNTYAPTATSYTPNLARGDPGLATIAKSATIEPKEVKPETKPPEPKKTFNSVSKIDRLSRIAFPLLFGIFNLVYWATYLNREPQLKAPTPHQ
α1β3γ2L GABAA receptors, sequence (P28472 26-473): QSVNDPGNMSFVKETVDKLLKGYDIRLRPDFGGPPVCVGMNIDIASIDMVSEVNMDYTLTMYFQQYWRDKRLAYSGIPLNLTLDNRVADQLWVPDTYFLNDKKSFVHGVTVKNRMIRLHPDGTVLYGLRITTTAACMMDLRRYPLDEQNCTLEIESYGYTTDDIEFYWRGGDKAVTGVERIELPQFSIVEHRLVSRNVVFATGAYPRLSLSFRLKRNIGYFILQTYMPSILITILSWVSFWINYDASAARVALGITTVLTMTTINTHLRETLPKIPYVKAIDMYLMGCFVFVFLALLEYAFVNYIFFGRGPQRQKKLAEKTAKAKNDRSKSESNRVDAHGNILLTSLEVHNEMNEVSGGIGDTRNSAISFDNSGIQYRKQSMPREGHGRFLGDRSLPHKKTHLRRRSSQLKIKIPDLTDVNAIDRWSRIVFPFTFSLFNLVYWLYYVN
α1β3γ2L GABAA receptors, sequence (P18507 40-475): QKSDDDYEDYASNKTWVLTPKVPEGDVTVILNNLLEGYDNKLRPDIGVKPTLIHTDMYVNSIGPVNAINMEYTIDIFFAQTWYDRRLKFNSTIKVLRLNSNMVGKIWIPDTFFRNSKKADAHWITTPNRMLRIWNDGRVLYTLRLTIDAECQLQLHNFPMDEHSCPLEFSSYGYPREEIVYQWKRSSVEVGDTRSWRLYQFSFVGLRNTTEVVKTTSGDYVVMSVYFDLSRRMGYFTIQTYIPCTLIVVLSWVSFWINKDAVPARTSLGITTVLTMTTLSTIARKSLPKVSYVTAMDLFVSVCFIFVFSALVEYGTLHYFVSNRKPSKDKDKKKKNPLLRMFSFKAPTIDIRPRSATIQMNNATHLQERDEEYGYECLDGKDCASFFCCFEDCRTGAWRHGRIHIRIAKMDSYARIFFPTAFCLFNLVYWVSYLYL

α1β3γ2L GABAA receptors (β+ – α− sites), sequence (P14867 28-456): as the sequence (P14867 28-456) above
α1β3γ2L GABAA receptors (β+ – α− sites), sequence (P28472 26-473): as the sequence (P28472 26-473) above
α1β3γ2L GABAA receptors (β+ – α− sites), sequence (P18507 40-475): as the sequence (P18507 40-475) above

With `C=CC[C@@]1(c2cccc(C3(C(F)(F)F)N=N3)c2)C(=O)NC(=O)N(C)C1=O`, in assay [1], the “Selectivity of photolabel for its respective class of binding sites” value is on record as “more than 50 fold”.
For `CCOC(=O)c1cncn1C(C)c1ccc2ccccc2c1` (stereo not drawn) [Naphthalene2-etomidate], the half-inhibitory concentration (IC50) in assay [2] came to 77 µM.
For `CCOC(=O)c1cncn1C(C)c1cccc2ccccc12` (stereo not drawn) [Naphthalene-etomidate], at α1β3γ2L GABAA receptors, the “Peak amplitude of EC5 GABA-evoked current with drug” value is reported as 10 ± 2.4 % of the current produced by 1 mM GABA.
Turning to `CC(c1ccccc1)n1cncc1C(=O)OCCC1(C)N=N1` (stereo not drawn) [^3[H]azi-etomidate], the “Selectivity of photolabel for its respective class of binding sites” value in assay [1] is “more than 50 fold”.
Consider `CCOC(=O)c1cncn1[C@H](C)c1cccc(OC(C)C)c1` [m-Isopropoxy-etomidate], for which the 50% inhibitory concentration (IC50) in assay [2] was 210 µM.
Still for that read-out and setting: the value for `CCOC(=O)c1cncn1[C@H](C)c1ccc(Br)cc1` [p-Bromo-etomidate] was 8.1 µM.
Consider `CCOC(=O)c1cncn1[C@H](C)c1ccc(F)cc1` [p-Fluoro-etomidate], for which the IC50 in assay [2] came to 3.6 µM.
Take `CCOC(=O)c1cncn1[C@H](C)c1ccc(OC)cc1` [p-Methoxy-etomidate]: the 50% inhibitory concentration (IC50) in assay [2] came out at 75 µM.
Consider m-Dimethoxy-etomidate, for which the concentration for half-maximal inhibition (IC50) in assay [2] was 830 µM.
